Assay results: the NIST ThermoML archive (doi:10.1016/j.jct.2005.05.018)
Where “and” joins values, the source holds several entries; their conditions need not be identical. Identical values can stand only once. Numbers after ± are expanded uncertainties.

Conditions: Liquid, Closed cell (Static) method

With `C[CH2][Sb]([CH2]C)[CH2]C` [triethylstibine] the “vapor or sublimation pressure” value (238.42 K) was 0.0037 ± 0.00017 kPa, the “vapor or sublimation pressure” value (243.46 K) was 0.00611 ± 0.00026 kPa and 0.0061 ± 0.00026 kPa and the “vapor or sublimation pressure” value (248.47 K) was 0.00991 ± 0.0004 kPa and 0.00989 ± 0.0004 kPa and 0.0099 ± 0.0004 kPa. The “vapor or sublimation pressure” value (253.48 K) was 0.01569 ± 0.00056 kPa, the “vapor or sublimation pressure” value (258.48 K) was 0.02451 ± 0.0007 kPa and 0.02448 ± 0.0007 kPa and 0.02449 ± 0.0007 kPa and the “vapor or sublimation pressure” value (263.48 K) was 0.03735 ± 0.00091 kPa and 0.03734 ± 0.00091 kPa and 0.03733 ± 0.00091 kPa. The “vapor or sublimation pressure” value (268.48 K) was 0.0557 ± 0.0012 kPa and 0.05561 ± 0.0012 kPa and 0.0556 ± 0.0012 kPa, the “vapor or sublimation pressure” value (273.68 K) was 0.08268 ± 0.0017 kPa [middle of 4 runs] and the “vapor or sublimation pressure” value (278.49 K) was 0.1181 ± 0.0022 kPa and 0.118 ± 0.0022 kPa. The “vapor or sublimation pressure” value (283.49 K) was 0.1676 ± 0.0025 kPa, the “vapor or sublimation pressure” value (285.99 K) was 0.1995 ± 0.0028 kPa and the “vapor or sublimation pressure” value (288.49 K) was 0.2362 ± 0.0031 kPa and 0.2363 ± 0.0031 kPa. For the same compound, the “vapor or sublimation pressure” value (290.99 K) was 0.2791 ± 0.0035 kPa and 0.279 ± 0.0035 kPa, the “vapor or sublimation pressure” value (293.49 K) was 0.3288 ± 0.004 kPa and 0.3282 ± 0.004 kPa and 0.3281 ± 0.004 kPa and the “vapor or sublimation pressure” value (295.99 K) was 0.3849 ± 0.0045 kPa and 0.385 ± 0.0045 kPa. For the same compound, the “vapor or sublimation pressure” value (298.49 K) was 0.4505 ± 0.0052 kPa and 0.4504 ± 0.0052 kPa and 0.4503 ± 0.0052 kPa and the “vapor or sublimation pressure” value (301 K) was 0.5246 ± 0.0058 kPa.
